How the values were obtained:
[1] = tested on: B16F10 cultured mouse melanoma cells; format: cell-based
Excerpt: B16F10 cultured mouse melanoma cells (ATCC, Rockville, Md.) were used in this experiment. The cells were maintained using standard procedures (Ara et al. 1990, Weight et al. 2006, Zharov et al. 2006), including serial passage in phenol-free RPMI 1640 medium (Invitrogen, Carlsbad, Calif.) supplemented with 10% fetal bovine serum (FBS, Invitrogen). For comparison to the detection of unlabeled melanoma cells, the endogenous cell absorption was increased by staining with ICG (Akorn Inc., USA), a strongly absorbent dye in the NIR range, for 30 min at 37° C. and in the presence of 5% CO2.

[2] = mouse, in vivo
Excerpt: In this experiment, a prototype PAFC system was used to detect Lymphazurin circulating in the blood vessels of a mouse ear.
The prototype PAFC system was built on the platform of an Olympus BX51 microscope (Olympus America, Inc.) and a tunable optical parametric oscillator (OPO) pumped by an Nd:YAG laser (Lotis Ltd., Minsk, Belarus). […] Laser energy was directed to the blood vessels using a conventional lens, or an optical fiber. PA waves emitted by the cells were detected by ultrasound transducers (unfocused Panametrics model XMS-310, 10 MHz; focused cylindrical Panametrics model V312-SM, 10 MHz, focused lengths of 6 mm, 12 mm, and 55 mm; and customized resonance transducers), and the ultrasound transducer outputs were conditioned by an amplifier (Panametrics model 5662, bandwidth 50 kHz-5 MHz; Panametrics model 5678, bandwidth 50 kHz-40 MHz; customized amplifiers with adjustable high and low frequency boundaries in the range to 50-200 KHz and 1-20 MHz, respectively; resonance bandwidth of 0.3-1.0 MHz). The amplifier output signals were recorded with a Boxcar data acquisition system (Stanford Research Systems, Inc.) and a Tektronix TDS 3032B oscilloscope, and were analyzed using standard and customized software. […] The signals from the oscilloscope screen were recorded with a digital camera (Sony, Inc.) and video camera (JVC, Inc.). […]

clearance of Lymphazurin from the blood [2] | SMILES | toxicity after labeling (trypan blue exclusion) [1]
 | CC1(C)C(/C=C/C=C/C=C/C=C2\N(CCCCS(=O)(=O)O)c3ccc4ccccc4c3C2(C)C)=[N+](CCCCS(=O)(=O)[O-])c2ccc3ccccc3c21 [ICG, Indocyanine Green] | No toxicity was observed
50 min | CCN(CC)c1ccc(C(=C2C=CC(=[N+](CC)CC)C=C2)c2cc(S(=O)(=O)[O-])ccc2S(=O)(=O)[O-])cc1.[Na+] [Lymphazurin, Isosulfan Blue] | 

— patent US11723540B2, “Device and method for in vivo photoacoustic diagnosis and photothermal purging of infected blood” (priority 2012, dated 2023)
